From publication PMC12362764, “Novel Cyano‐Artemisinin Dimer ZQJ29 Targets PARP1 to Induce Ferroptosis in Pancreatic Cancer Treatment” (Advanced Science, 2025)

Legend:
KP4 = test: CCK-8 cytotoxicity assay, KP4; format: cell-based
Description: (§1) Cell viability was evaluated using the Cell Counting Kit‐8 (Beyotime, Shanghai, China) assay. Cells were seeded in 96‐well plates at a density of 2×10^3 cells to allow for attachment. After treatment with ZQJ29 (0.001, 0.01, 0.1, 10, and 25 µM) for 24, 48, and 72 h, 10 µL of CCK‐8 solution was added to each well and incubated for 1 h. The optical density values were then measured at 450 nm using a multifunctional enzyme‐linked immunosorbent assay reader (Tecan, Spark, Switzerland).

MCF = test: CCK-8 cytotoxicity assay, MCF; format: cell-based; conditions: 72 h
Description: as §1

PARP1 [1] = target: PARP1 (Homo sapiens, UniProt P09874); test: CETSA; format: binding; set-up: Total cellular proteins from PANC‐1 and KP4 were extracted using M‐PER lysis buffer; endogenous in cells; host or cells: PANC-1 and KP4 pancreatic cancer cells
Description: PANC‐1 and KP4 cells were treated with M‐PER lysis buffer to lyse the cells. The resulting protein extracts were divided into two parts. One part was treated with 50 µM ZQJ29, while the other received an equal amount of DMSO. Both mixtures were incubated on ice for 1 h. The samples were then divided into 100 µL PCR tubes and exposed to a range of temperatures starting at 45 °C. After cooling and centrifugation, 5 × SDS loading buffers were added to the supernatant. The samples were then heated to 95 °C for 10 min and analyzed SDS‐PAGE followed by Western blotting.

PARP1 [2] = test: PARP1 expression (western blot, immunofluorescence); format: cell-based
Description: (§2) For western blotting analysis, ZQJ29‐treated cells were lysed with RIPA Lysis Buffer (Yeasen, Shanghai, China) containing protease and phosphatase inhibitors (Yeasen, Shanghai, China) on ice. The cell lysates were quantified using the BCA Protein Assay Kit (Beyotime, Shanghai, China). Samples were subjected to SDS‐PAGE and transferred to PVDF membranes (Beyotime, Shanghai, China). The membranes were blocked with 5% nonfat milk in TBST (Buffered Saline with 0.1% Tween 20) for 1 h, followed by overnight incubation at 4 °C with primary antibodies. After washing the membranes three times with TBST, they were incubated with the appropriate secondary antibodies for 2 h at room temperature. Following another three times with TBST, the bands on the membranes were detected using the ECL‐Plus Western Blotting Detection System (Yeasen, Shanghai, China).
PARP1 expression in the cell nucleus was detected using immunofluorescence. The cells were seeded in a 12‐well plate and treated with ZQJ29 (0, 1, 2.5, and 5 µM) after complete adhesion. After a specific duration of treatment, fixation, blocking, and antibody incubation were performed, and images were captured using a Cytation 5‐cell imaging microplate detection system.

[3] = tested on: PARP1, TP53, SLC7A11, and GPX4; test: Western blot of PARP1, TP53, SLC7A11 and GPX4 in cells; format: cell-based; conditions: PANC-1 and KP4 cell lines, dose-dependent
Description: as §2

HPDE6-C7 = test: CCK-8 cytotoxicity assay, HPDE6-C7 (normal cell line); format: cell-based; conditions: HPDE6c7, 72 h
Description: as §1

KP4 cells = test: Cell cycle analysis (PI, flow cytometry), KP4; format: cell-based; conditions: KP4, 24 h
Description: PANC‐1 and KP4 cells were placed in 6 cm dishes and exposed to designated concentrations of ZQJ29 (1 µM) for 24 h before trypsinization. After centrifugation, the cells were secured and preserved in ice‐cold 70% ethanol and stored at 4 °C for 24 h. They were then thoroughly washed with PBS multiple times. Next, the fixed cells were incubated in PBS supplemented with RNase and PI solution for 30 min at 37 °C, protected from light exposure. Cell cycle progression was assessed using a flow cytometer. This experimental procedure was systematically conducted in three separate trials, with each trial done in triplicate. Cell cycle kits were obtained from Beyotime (Shanghai, China).

PANC-1 tumors = test: PANC-1 subcutaneous xenograft antitumor activity; format: in vivo, BALB/c nude mice
Description: (§3) Five‐week‐old male BALB/c nude mice were purchased from Shanghai Jihui Laboratory Animal Breeding Co., Ltd. (Shanghai, China). After a one‐week acclimatization period, PANC‐1 cells were subcutaneously injected at a dose of 5 × 10^6 cells per mouse. Four weeks post‐injection, once tumor volumes reached 50–100 mm^3, the tumor‐bearing animals were randomly divided into four groups, each consisting of six animals. ZQJ29 was prepared in a 0.5% CMC‐Na solution, while OXA was dissolved in saline. The control group was treated with oral gavage of 0.5% CMC‐Na, while the positive control group was administered intraperitoneal injections of OXA at a dosage of 3 mg kg^−1 every three days. The test groups were treated with oral gavage of ZQJ29 at dosages of 25 and 50 mg kg day^−1. Mouse weights were monitored every other day. Tumor measurements were taken every other day using calipers, and the tumor volume was calculated using the following formula: ½ × length × width^2. Drug administered continued for three weeks. After blood collection at the end of the administration, the mice were humanely euthanized, and their vital organs were promptly harvested, preserved, and embedded in paraffin for H&E staining.

[4] = Toxicity in tumor-bearing mice (body weight, ALT/AST, H&E); format: in vivo, BALB/c nude mice
Description: as §3
Following the experiments, organs from mice, including hearts, livers, spleens, lungs, and kidneys were swiftly collected and fixed in 4% paraformaldehyde overnight. The tissues were then embedded in paraffin. Afterward, 4‐µm‐thick sections were produced and stained using H&E. Images of these sections were captured with a Leica DM4000b microscope (Germany).
Blood samples were collected and placed in a biochemical incubator for 30 min, followed by centrifugation at 6000 rpm for 10 min. The supernatant was used to measure the following indicators: ALT and AST (both from Jiancheng, Nanjing, China).

[5] = tumor tissue and proteomic analyses

Chain of PARP1 (Homo sapiens, UniProt P09874) (P09874 whole entry): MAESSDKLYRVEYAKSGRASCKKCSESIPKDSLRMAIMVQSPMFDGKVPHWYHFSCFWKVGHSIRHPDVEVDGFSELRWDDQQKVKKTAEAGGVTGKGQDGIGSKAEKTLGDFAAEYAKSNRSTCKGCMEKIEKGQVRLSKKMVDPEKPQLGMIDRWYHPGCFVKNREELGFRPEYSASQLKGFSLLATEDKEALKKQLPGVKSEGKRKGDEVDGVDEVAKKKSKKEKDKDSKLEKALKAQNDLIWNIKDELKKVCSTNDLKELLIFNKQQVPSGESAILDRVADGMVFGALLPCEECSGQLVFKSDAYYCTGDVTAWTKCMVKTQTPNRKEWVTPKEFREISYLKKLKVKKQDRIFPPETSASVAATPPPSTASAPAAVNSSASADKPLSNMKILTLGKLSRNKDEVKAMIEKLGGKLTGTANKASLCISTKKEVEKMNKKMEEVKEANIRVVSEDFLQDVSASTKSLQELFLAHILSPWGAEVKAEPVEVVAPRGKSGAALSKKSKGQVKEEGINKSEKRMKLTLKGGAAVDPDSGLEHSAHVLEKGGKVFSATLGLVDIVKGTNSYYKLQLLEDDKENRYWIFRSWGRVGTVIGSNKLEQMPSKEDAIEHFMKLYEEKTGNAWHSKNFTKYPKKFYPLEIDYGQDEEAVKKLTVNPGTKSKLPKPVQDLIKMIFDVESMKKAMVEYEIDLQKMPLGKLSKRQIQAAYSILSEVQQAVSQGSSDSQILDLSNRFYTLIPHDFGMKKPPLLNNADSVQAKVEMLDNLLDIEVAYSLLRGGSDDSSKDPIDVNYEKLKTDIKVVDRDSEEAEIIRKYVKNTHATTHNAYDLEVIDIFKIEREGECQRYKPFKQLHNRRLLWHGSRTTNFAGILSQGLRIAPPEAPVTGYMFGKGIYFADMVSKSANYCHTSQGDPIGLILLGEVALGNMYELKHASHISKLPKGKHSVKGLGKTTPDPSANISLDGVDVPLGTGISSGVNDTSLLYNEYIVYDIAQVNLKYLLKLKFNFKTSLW

## CC1CCC2C(C)C(OCCN(C#N)CCOC3OC4OC5(C)CCC6C(C)CCC(C3C)C46OO5)OC3OC4(C)CCC1C32OO4 (centres unmarked) [ZQJ29]
KP4; Homo sapiens, KP-4, KP4, as printed in the text
  IC50: 885 ± 106 nM
KP4; KP4 cells
  enhanced cytotoxic effect compared to OXA and DHA: 10 fold
KP4; discussion, cell line not stated
  potency of antitumor over DHA: 10 fold
MCF
  IC50: 759 ± 311 nM
PARP1 [1]; PANC-1 and KP4 lysates, 50 µM ZQJ29, 45 to 70 °C
  PARP1 accumulation (thermal stability): significantly increased
PARP1 [1]; cell lysates, increasing ZQJ29 concentrations
  PARP1 stability at 60 °C: enhanced
PARP1 [2]; PANC-1 and KP4 cells, 0, 1, 2.5, 5 µM, 24 h
  nucleoplasmic PARP1 levels (immunofluorescence): remarkably reduced
PARP1 [2]; PANC-1 and KP4 cells, time- and concentration-dependent
  PARP1 expression (western blot): significantly reduced
[3]
  expression of PARP1, SLC7A11 and GPX4: downregulated
  expression of TP53: upregulated
HPDE6-C7
  IC50: > 10000 nM
KP4 cells
  cell cycle arrest: remarkable G2/M phase arrest
PANC-1 tumors; 25 or 50 mg/kg oral, vs control group
  tumor size and weight: significantly reduced
PANC-1 tumors; ZQJ29 25 and 50 mg/kg/day oral gavage, OXA 3 mg/kg i.p. every three days, three weeks, vs control
  tumor growth: effectively inhibited
PANC-1 tumors; after treatment, vs control
  expression of Ki67 and PCNA in tumor tissue (IHC): significantly reduced
PANC-1 tumors; [5]
  expression of PARP1, SLC7A11 and GPX4: downregulated
  expression of TP53: upregulated
[4]; ZQJ29 50 mg/kg, OXA 3 mg/kg i.p.
  post-experiment levels of ALT and AST: no significant alterations
[4]; hearts, livers, spleens, lungs, kidneys
  major organ damage (H&E staining): no significant major organ damage
[4]; tumor-bearing nude mice, three weeks
  body weight during the whole treatment period: remained stable
